Patent US9243281B2, “Neuroprotective chemicals and methods for identifying and using same” (Board of Regents of The University of Texas System, priority 2013, dated 2016)

Legend:
[1] = tested on: hippocampal neurogenesis (Dentate Gyrus); assay: in vivo neurogenesis assay (BrdU+ cells in dentate gyrus); parameters: species or system mice
Procedure, shortened: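 Pools of ten compounds infused into the left ventricle of two adult mice per pool via cannula and mini-pump over one week, aimed at mid-nanomolar levels. Daily BrdU co-injected; brain sections stained for BrdU to count new dentate gyrus cells.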

p70 (NAMPT) = molecular target: T1, p70 (NAMPT) (Homo sapiens, UniProt P43490); assay: binding competition for photo-crosslinking of P7C3-S326 to p70 in H2122 cells; details: 0.3 μM P7C3-S326 plus 5 μM competitor, p70 band intensity, P7C3-S326 alone compared with plus competitor, vehicle 1.0
T1 construct: endogenous in cells; host or cells: H2122 lung cancer cells
Procedure, shortened: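 H2122 cells were co-treated with 0.3 μM P7C3-S326 and 5 uM competing P7C3 analogs for 2 hours at 37° C, then UV-crosslinked at 306 nm for 15 minutes. Lysates were clicked to a fluorescent dye and run on SDS-PAGE. The p70 band was quantified relative to the DMSO control.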

[2] = living mice, vehicle (DMSO) 7.3

T1 sequence (P43490 whole entry): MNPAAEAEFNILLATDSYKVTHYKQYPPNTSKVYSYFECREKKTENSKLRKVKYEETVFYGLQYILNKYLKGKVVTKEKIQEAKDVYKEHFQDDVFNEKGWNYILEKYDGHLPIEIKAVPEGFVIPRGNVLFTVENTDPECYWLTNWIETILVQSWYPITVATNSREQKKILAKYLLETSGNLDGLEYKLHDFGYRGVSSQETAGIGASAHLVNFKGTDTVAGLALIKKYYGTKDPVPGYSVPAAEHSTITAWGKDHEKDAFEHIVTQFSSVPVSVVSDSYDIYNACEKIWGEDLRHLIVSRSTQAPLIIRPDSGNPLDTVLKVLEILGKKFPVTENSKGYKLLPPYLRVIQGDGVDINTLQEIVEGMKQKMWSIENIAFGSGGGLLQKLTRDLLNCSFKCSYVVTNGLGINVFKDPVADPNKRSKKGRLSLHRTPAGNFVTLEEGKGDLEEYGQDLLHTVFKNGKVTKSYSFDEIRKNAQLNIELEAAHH

In the case of `COCC(O)Cn1c2ccc(Br)cc2c2cc(Br)ccc21` (centres unmarked) [S19], the “Neurogenesis # BrdU+ Cells (X10E06)/mm3 Dentate Gyrus” value (shortened to “Neurogenesis # BrdU+ Cells”) [1, 2] is reported as 10.5 (X10E06)/mm3 and the Binding competition (p70 (NAMPT)) is reported as 2.9.

With `COc1cccc(NCC(O)Cn2c3ccccc3c3cc(Br)ccc32)c1` (centres unmarked) [S29] the “Neurogenesis # BrdU+ Cells” value [1, 2] was 9.5 (X10E06)/mm3 and the Binding competition (p70 (NAMPT)) was 4.2.

In the case of `N[C@@H]1C[C@H]1c1ccccc1` [S118, Parnate, reference compound], the “Neurogenesis # BrdU+ Cells” value ([1]; mouse, in vivo) is reported as 8.3 (X10E06)/mm3 and the Binding competition (p70 (NAMPT)) is reported as 1.3.

`OC(COc1ccccc1)Cn1c2ccc(Br)cc2c2cccnc21` (centres unmarked) [S186] was tested, and the “Neurogenesis # BrdU+ Cells” value [1, 2] was 8.1 (X10E06)/mm3 and the Binding competition (p70 (NAMPT)) was 3.4.

`OC(CNc1ccccc1)Cn1c2ccc(Br)cc2c2cc(Br)ncc21` (centres unmarked) [S30] was tested, and the “Neurogenesis # BrdU+ Cells” value [1, 2] was 14.3 (X10E06)/mm3 and the Binding competition (p70 (NAMPT)) was 3.3.

For `CC(C)(C)OC(=O)CCOCCOCCOCCOc1cccc(NCC(O)Cn2c3ccc(Br)cc3c3cc(Br)ccc32)c1` (centres unmarked) [S157], the “Neurogenesis # BrdU+ Cells” value [1, 2] was 10.2 (X10E06)/mm3 and the Binding competition (p70 (NAMPT)) was 1.5.

`N#CN1CCc2c(c3cc(Br)ccc3n2CC(O)COc2ccccc2)C1` (centres unmarked) [S107] was tested, and the “Neurogenesis # BrdU+ Cells” value [1, 2] was 7.3 (X10E06)/mm3 and the Binding competition (p70 (NAMPT)) was 3.5.

For `OC(Cn1ccc2ccccc21)Cn1c2ccc(Br)cc2c2cc(Br)ccc21` (centres unmarked) [S22], the “Neurogenesis # BrdU+ Cells” value [1, 2] was 6.7 (X10E06)/mm3 and the Binding competition (p70 (NAMPT)) was 2.7.

`CNCCCC1c2ccccc2C=Cc2ccccc21.Cl` [S90, Protriptyline, reference compound] was tested, and the “Neurogenesis # BrdU+ Cells” value [1, 2] was 11.1 (X10E06)/mm3 and the Binding competition (p70 (NAMPT)) was 1.4.

With `CC(C(=O)O)n1c2ccc(Br)cc2c2cc(Br)ccc21` (centres unmarked) [S211] the “Neurogenesis # BrdU+ Cells” value [1, 2] was 11.5 (X10E06)/mm3 and the Binding competition (p70 (NAMPT)) was 1.2.

With `OC(CNc1cccc2ccccc12)Cn1c2ccc(Cl)cc2c2cc(Cl)ccc21` (centres unmarked) [S184] the “Neurogenesis # BrdU+ Cells” value [1, 2] was 6.7 (X10E06)/mm3 and the Binding competition (p70 (NAMPT)) was 2.5.

`NC(=O)c1ccc2[nH]c3ccc(Br)cc3c2c1` [S223] was tested, and the “Neurogenesis # BrdU+ Cells” value [1, 2] was 7.9 (X10E06)/mm3 and the Binding competition (p70 (NAMPT)) was 3.0.

`CCOC(=O)c1ncc2c(n1)c1ccccc1n2S(=O)(=O)c1ccc(C)cc1` [S246] was tested, and the “Neurogenesis # BrdU+ Cells” value [1, 2] was 14.5 (X10E06)/mm3 and the Binding competition (p70 (NAMPT)) was 1.3.

With `COc1cccc(SCC(O)Cn2c3ccc(Br)cc3c3cc(Br)ccc32)c1` (centres unmarked) [S77] the “Neurogenesis # BrdU+ Cells” value [1, 2] was 12.0 (X10E06)/mm3 and the Binding competition (p70 (NAMPT)) was 3.3.

With `Nc1cccc(SCC(O)Cn2c3ccc(Br)cc3c3cc(Br)ccc32)c1` (centres unmarked) [S95] the “Neurogenesis # BrdU+ Cells” value [1, 2] was 8.6 (X10E06)/mm3 and the Binding competition (p70 (NAMPT)) was 4.6.

In the case of `N=c1ccccn1CC(O)Cn1c2ccc(Br)cc2c2cc(Br)ccc21` (centres unmarked) [S5], the “Neurogenesis # BrdU+ Cells” value [1, 2] is reported as 12.2 (X10E06)/mm3 and the Binding competition (p70 (NAMPT)) is reported as 1.4.

In the case of `O=S(=O)(C[C@H](O)Cn1c2ccc(Br)cc2c2cc(Br)ccc21)c1ccccc1` [S51], the “Neurogenesis # BrdU+ Cells” value [1, 2] is reported as 13.2 (X10E06)/mm3 and the Binding competition (p70 (NAMPT)) is reported as 2.4.

`O=C(COc1ccc(NCC(F)Cn2c3ccc(Br)cc3c3cc(Br)ccc32)cc1)NCCO` (centres unmarked) [S71] was tested, and the “Neurogenesis # BrdU+ Cells” value [1, 2] was 7.2 (X10E06)/mm3 and the Binding competition (p70 (NAMPT)) was 3.1.

For `CC(=O)NCCOCC(O)Cn1c2ccc(Br)cc2c2cc(Br)ccc21` (centres unmarked) [S43], the “Neurogenesis # BrdU+ Cells” value [1, 2] was 11.7 (X10E06)/mm3 and the Binding competition (p70 (NAMPT)) was 1.7.

In the case of `O=C(COc1cccc(SCC(O)Cn2c3ccc(Br)cc3c3cc(Br)ccc32)c1)NCc1ccccc1` (centres unmarked) [S98], the “Neurogenesis # BrdU+ Cells” value [1, 2] is reported as 6.9 (X10E06)/mm3 and the Binding competition (p70 (NAMPT)) is reported as 1.1.

For `O=C1CC2(CCCC2)CC(=O)N1CCCCN1CCN(c2ncccn2)CC1` [S127, Buspar, reference compound], the “Neurogenesis # BrdU+ Cells” value [1, 2] was 6.9 (X10E06)/mm3 and the Binding competition (p70 (NAMPT)) was 1.2.

For `O[C@H](COc1ccccc1)Cn1c2ccc(Br)cc2c2cc(Br)ccc21` [S41], the “Neurogenesis # BrdU+ Cells” value [1, 2] was 15.3 (X10E06)/mm3 and the Binding competition (p70 (NAMPT)) was 3.4.

For `O=C(O)c1cc2c3cc(Br)ccc3n(CC(O)COc3ccccc3)c2cn1` (centres unmarked) [S173], the “Neurogenesis # BrdU+ Cells” value [1, 2] was 12.8 (X10E06)/mm3 and the Binding competition (p70 (NAMPT)) was 1.0.

With `O=c1ccccn1CC(O)Cn1c2ccc(Br)cc2c2cc(Br)ccc21` (centres unmarked) [S137] the “Neurogenesis # BrdU+ Cells” value [1, 2] was 12.2 (X10E06)/mm3 and the Binding competition (p70 (NAMPT)) was 4.5.

In the case of `NC(COc1ccccc1)Cn1c2ccc(Br)cc2c2cc(Br)ccc21` (centres unmarked) [S97], the “Neurogenesis # BrdU+ Cells” value [1, 2] is reported as 7.6 (X10E06)/mm3 and the Binding competition (p70 (NAMPT)) is reported as 2.0.

With `OC(CN1c2ccccc2CCc2ccccc21)Cn1c2ccccc2c2ccccc21` (centres unmarked) [S133] the “Neurogenesis # BrdU+ Cells” value [1, 2] was 10.1 (X10E06)/mm3 and the Binding competition (p70 (NAMPT)) was 1.2.

`O=C(O)Cn1c2ccc(Br)cc2c2cc(C(=O)O)ccc21` [S239] was tested, and the “Neurogenesis # BrdU+ Cells” value [1, 2] was 11.4 (X10E06)/mm3 and the Binding competition (p70 (NAMPT)) was 0.9.

For `OC(CN1c2ccccc2CCc2ccccc21)Cn1ccc2ccccc21` (centres unmarked) [S132], the “Neurogenesis # BrdU+ Cells” value [1, 2] was 11.4 (X10E06)/mm3 and the Binding competition (p70 (NAMPT)) was 1.3.

`Cc1cc2c3cc(Br)ccc3n(CC(O)COc3ccccc3)c2cn1` (centres unmarked) [S190] was tested, and the “Neurogenesis # BrdU+ Cells” value [1, 2] was 8.4 (X10E06)/mm3 and the Binding competition (p70 (NAMPT)) was 4.1.

`O=S(=O)(CC(O)Cn1c2ccc(Br)cc2c2cc(Br)ccc21)c1ccc(OCCF)cc1` (centres unmarked) [S156] was tested, and the “Neurogenesis # BrdU+ Cells” value [1, 2] was 15.0 (X10E06)/mm3 and the Binding competition (p70 (NAMPT)) was 1.2.

For `OC(CN1c2ccccc2CCc2ccccc21)CN1c2ccccc2CCc2ccccc21` [S170], the “Neurogenesis # BrdU+ Cells” value [1, 2] was 11.2 (X10E06)/mm3 and the Binding competition (p70 (NAMPT)) was 1.5.

`O=C(O)CN1c2ccccc2CCc2ccccc21` [S210] was tested, and the “Neurogenesis # BrdU+ Cells” value [1, 2] was 10.7 (X10E06)/mm3 and the Binding competition (p70 (NAMPT)) was 1.1.

With `CN(C)CCCN1c2ccccc2Sc2ccc(Cl)cc21` [S121, CPZ, reference compound] the “Neurogenesis # BrdU+ Cells” value [1, 2] was 11.1 (X10E06)/mm3 and the Binding competition (p70 (NAMPT)) was 2.3.

For `Cc1ccc2c(c1)c1c(n2CC(O)CNc2ccccc2)CCN(C)C1` (centres unmarked) [S46], the “Neurogenesis # BrdU+ Cells” value [1, 2] was 9.2 (X10E06)/mm3 and the Binding competition (p70 (NAMPT)) was 1.9.

For `COc1cccc(NCC(O)Cn2c3ccc(C)cc3c3cc(C)ccc32)c1` (centres unmarked) [S2], the “Neurogenesis # BrdU+ Cells” value [1, 2] was 8.1 (X10E06)/mm3 and the Binding competition (p70 (NAMPT)) was 3.7.

In the case of `O[C@@H](COc1ccccc1)Cn1c2ccc(Br)cc2c2cc(Br)ccc21` [S40], the “Neurogenesis # BrdU+ Cells” value [1, 2] is reported as 8.1 (X10E06)/mm3 and the Binding competition (p70 (NAMPT)) is reported as 2.8.

`CC(C)(C)NCC(O)CN1c2ccccc2CCc2ccccc21` (centres unmarked) [S145] was tested, and the “Neurogenesis # BrdU+ Cells” value [1, 2] was 12.5 (X10E06)/mm3 and the Binding competition (p70 (NAMPT)) was 2.6.

With `COc1ccc2[nH]c3ccc(Br)cc3c2c1` [S209] the “Neurogenesis # BrdU+ Cells” value [1, 2] was 15.0 (X10E06)/mm3 and the Binding competition (p70 (NAMPT)) was 3.7.

In the case of `CCOc1cccc(NCC(O)Cn2c3ccc(Br)cc3c3cc(Br)ccc32)c1` (centres unmarked) [S24], the “Neurogenesis # BrdU+ Cells” value [1, 2] is reported as 8.0 (X10E06)/mm3 and the Binding competition (p70 (NAMPT)) is reported as 3.1.

With `N#Cc1cc2c(cn1)[nH]c1ccc(Br)cc12` [S221] the “Neurogenesis # BrdU+ Cells” value [1, 2] was 14.8 (X10E06)/mm3 and the Binding competition (p70 (NAMPT)) was 2.9.

For `NCC(O)CN1c2ccccc2CCc2ccccc21` (centres unmarked) [S140], the “Neurogenesis # BrdU+ Cells” value [1, 2] was 11.7 (X10E06)/mm3 and the Binding competition (p70 (NAMPT)) was 1.2.

In the case of `OC(CNc1ncccn1)Cn1c2ccc(Br)cc2c2cc(Br)ccc21` (centres unmarked) [S8], the “Neurogenesis # BrdU+ Cells” value [1, 2] is reported as 7.8 (X10E06)/mm3 and the Binding competition (p70 (NAMPT)) is reported as 4.7.

With `NCC(O)Cn1c2ccc(Br)cc2c2cc(Br)ccc21` (centres unmarked) [S20] the “Neurogenesis # BrdU+ Cells” value [1, 2] was 12.7 (X10E06)/mm3 and the Binding competition (p70 (NAMPT)) was 1.3.
